Type in all cases: cell-based
Experiment [1] concerns E. coli Neumann. In words: MIC by serial dilution method on Iso-Sensitest agar. As to conditions: Escherichia coli. The protocol: (§1) The minimum inhibitory concentrations (MIC) were determined by the serial dilution method on Iso-Sensitest agar (Oxoid). For each test substance a series of agar plates were prepared which contained decreasing concentrations of the active substance, obtained by twofold dilution from one plate to the next. The agar plates were inoculated with a Multipoint inoculator (Denley). Inoculation was effected using overnight cultures of the pathogens which had been diluted beforehand so that each inoculation point contained ca. 10^4 colony forming particles. The inoculated agar plates were incubated at 37° C. and the bacterial growth was evaluated after ca. 20 hours. The MIC value (μg/ml) indicates the lowest active substance concentration at which no growth was detectable with the naked eye.

Experiment [2] relates to Klebs. 57 USA. The description is as above. On the procedure:
as §1

Experiment [3] concerns Psdm. Bonn. The experiment is described as above. On the procedure: as §1
For experiment [4], the system named is Staph. 133. The experiment is described as above. The protocol:
as §1

In experiment [5] the test system is Staph. 25701. Described as above. On the procedure: as §1
The subject of experiment [6] is Staph. 48N. Described as above. The protocol:
as §1

Experiment [7] deals with Staph. 9TV. The description is as above. On the procedure: as §1
Experiment [8] has as its system Mycobacterium smegmatis DSM 43078. Nature of the experiment: MIC for rapidly growing mycobacteria, broth microdilution method. As to conditions: Mycolicibacterium smegmatis, DSM43078, inoculum 4.20E + 04 [/ml], 37° C., 2-4 days. The protocol: For rapidly growing mycobacteria the MIC were determined on the basis of the broth microdilution method described by Swenson [cf. J. M. Swenson, C. Thomberry, U. A. Silcox, Rapidly growing mycobacteria. Testing of susceptibility to 34 antimicrobial agents by broth microdilution. Antimicrobial Agents and Chemotherapy, vol. 22, 186-192 (1982)]. The brain-heart extract medium treated with 0.1 vol.% of Tween 80 was an exception.
The mycobacterial strains used were obtained from the DSM (Deutsche Sammlung von Mikroorganismen (German Collection of Microorganisms), Brunswick). They were incubated in a moist chamber at 37° C.
The MIC values were evaluated after 2-4 days, when the preparation-free controls were opaque due to growth.
(In general: Dilution methods test growth across graded concentrations, often in twofold steps.)

Setting [9] is: E. coli Neumann, agar, 37° C., ca. 20 hours, read-out: MIC.
The mark [10] stands for this setting: Klebs. 57 USA, agar, 37° C., ca. 20 hours, read-out: MIC.
The mark [11] stands for this setting: Staph. 133, agar, 37° C., ca. 20 hours, read-out: MIC.
The mark [12] stands for this setting: Staph. 25701, agar, 37° C., ca. 20 hours, read-out: MIC.
Setting [13] is: Staph. 48N, agar, 37° C., ca. 20 hours, read-out: MIC.
The mark [14] stands for this setting: Staph. 9TV, agar, 37° C., ca. 20 hours, read-out: MIC.

In brackets after ≈: the same amount, converted by molar mass. Where two headings read alike, the source gives them in different places.

A word on the MIC: it is the lowest concentration that inhibits growth of the organism.

On to `O=C(CF)NC[C@H]1CN(c2ccc(-c3cccnc3)s2)C(=O)O1` [Example 18], for which the MIC in experiment [1] (20 h) was above 64 µg/mL; in experiment [2] (20 h), above 64 µg/mL; in experiment [3] (20 h), above 64 µg/mL; in experiment [4] (20 h) it was 2 µg/mL (≈ 5.96 µM); in experiment [5] (20 h), 4 µg/mL (≈ 11.9 µM); in experiment [6] (20 h), 4 µg/mL (≈ 11.9 µM). Also, the MIC in experiment [7] (20 h) worked out at 1 µg/mL (≈ 2.98 µM).

In the case of `CCCOC(=O)NC[C@H]1CN(c2ccc(-c3cccnc3)s2)C(=O)O1` [Example 20], the MIC is above 64 µg/mL in experiment [1] (setting [9]); above 64 µg/mL in experiment [2] (setting [10]); above 64 µg/mL in experiment [3] (Psdm. Bonn, agar, 37° C., ca. 20 hours, read-out: MIC); 2 µg/mL (≈ 5.53 µM) in experiment [4] (setting [11]); 2 µg/mL (≈ 5.53 µM) in experiment [5] (setting [12]); 2 µg/mL (≈ 5.53 µM) in experiment [6] (setting [13]). Moreover, the MIC in experiment [7] (setting [14]) was 2 µg/mL (≈ 5.53 µM).

Consider `COC(=O)NC[C@H]1CN(c2ccc(Br)c(C)n2)C(=O)O1` [Example 25], for which the MIC in experiment [1] (setting [9]) was above 64 µg/mL; in experiment [2] (setting [10]) it was above 64 µg/mL; in experiment [4] (setting [11]), 2 µg/mL (≈ 5.81 µM); in experiment [5] (setting [12]) it was 2 µg/mL (≈ 5.81 µM); in experiment [6] (setting [13]) it was 2 µg/mL (≈ 5.81 µM); in experiment [7] (setting [14]), 1 µg/mL (≈ 2.91 µM).

`NNC(=O)c1ccncc1` [Isoniazid]: the MIC in experiment [8] stood at 2 µg/mL.

(Values after US5922708A, “Heteroaryl-oxazolidinones” (Bayer Aktiengesellschaft, priority 1996, dated 1999).)
